Assay results reported in patent US8853230B2, “Inhibitors of JAK” (Portola Pharmaceuticals, Inc., priority 2009, dated 2014).
pIC50: −log10 of the molar value.

Legend:
Assay type in all cases: biochemical
TYK2 = target: T1, TYK2 (Homo sapiens, UniProt P29597); assay: Z'-LYTE kinase assay, TYK2 tyrosine phosphorylation activity
T1 construct: 5 μl of catalytic domain recombinant Kinase enzyme+Tyr peptide substrate (Invitrogen, Calif.); purchased Invitrogen
T1 sequence (P29597 897-1176 limits assumed): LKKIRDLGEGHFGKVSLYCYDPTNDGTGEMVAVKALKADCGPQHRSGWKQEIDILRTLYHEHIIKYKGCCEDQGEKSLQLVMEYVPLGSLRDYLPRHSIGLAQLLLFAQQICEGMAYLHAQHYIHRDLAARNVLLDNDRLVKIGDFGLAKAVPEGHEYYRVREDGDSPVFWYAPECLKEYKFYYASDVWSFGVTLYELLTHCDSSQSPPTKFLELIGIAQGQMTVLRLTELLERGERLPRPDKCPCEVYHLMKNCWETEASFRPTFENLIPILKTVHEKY
Procedure, shortened: (§1)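 Inhibition is expressed as substrate phosphorylation relative to inhibitor-free wells, fitted with a 4-parameter logistic model for IC50. Reactions contain catalytic-domain kinase, Tyr6 peptide and ATP, run 1 h at room temperature. Development protease is added for 1 h before fluorescence readout.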

JAK2 = target: T2, JAK2 (Homo sapiens, UniProt O60674); assay: Z'-LYTE kinase assay, JAK2 tyrosine phosphorylation activity
T2 construct: 5 μl of catalytic domain recombinant Kinase enzyme+Tyr peptide substrate (Invitrogen, Calif.); purchased Invitrogen
Procedure, shortened: as §1

JAK3 = target: T3, JAK3 (Homo sapiens, UniProt P52333); assay: Z'-LYTE kinase assay, JAK3 tyrosine phosphorylation activity
T3 construct: 5 μl of catalytic domain recombinant Kinase enzyme+Tyr peptide substrate (Invitrogen, Calif.); purchased Invitrogen
Procedure, shortened: as §1

Syk = Syk (Homo sapiens, UniProt P43405); assay: Syk IC50 (Table 1; method not given)
JAK1 = target: T4, JAK1 (Homo sapiens, UniProt P23458); assay: Z'-LYTE kinase assay, JAK1 tyrosine phosphorylation activity; conditions: read-out: JAK 1 IC50
T4 construct: 5 μl of catalytic domain recombinant Kinase enzyme+Tyr peptide substrate (Invitrogen, Calif.); purchased Invitrogen
Procedure, shortened: as §1

T4 sequence (P23458 875-1153 limits assumed): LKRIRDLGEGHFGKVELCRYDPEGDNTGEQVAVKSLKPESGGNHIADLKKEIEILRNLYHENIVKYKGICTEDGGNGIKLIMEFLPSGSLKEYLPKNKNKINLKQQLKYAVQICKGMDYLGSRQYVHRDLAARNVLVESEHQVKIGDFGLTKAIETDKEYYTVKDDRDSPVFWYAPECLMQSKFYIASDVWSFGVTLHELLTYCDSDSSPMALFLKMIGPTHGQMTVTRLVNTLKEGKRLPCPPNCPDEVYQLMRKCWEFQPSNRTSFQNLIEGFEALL
T2 sequence (O60674 849-1124 limits assumed): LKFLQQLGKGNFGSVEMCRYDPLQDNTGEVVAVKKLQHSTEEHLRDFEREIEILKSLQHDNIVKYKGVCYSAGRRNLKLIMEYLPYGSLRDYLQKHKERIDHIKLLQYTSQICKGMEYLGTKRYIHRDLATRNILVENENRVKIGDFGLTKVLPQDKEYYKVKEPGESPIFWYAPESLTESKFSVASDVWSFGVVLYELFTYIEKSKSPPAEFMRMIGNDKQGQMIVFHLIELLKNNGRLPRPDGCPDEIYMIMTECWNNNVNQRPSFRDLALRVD
T3 sequence (P52333 822-1111 limits assumed): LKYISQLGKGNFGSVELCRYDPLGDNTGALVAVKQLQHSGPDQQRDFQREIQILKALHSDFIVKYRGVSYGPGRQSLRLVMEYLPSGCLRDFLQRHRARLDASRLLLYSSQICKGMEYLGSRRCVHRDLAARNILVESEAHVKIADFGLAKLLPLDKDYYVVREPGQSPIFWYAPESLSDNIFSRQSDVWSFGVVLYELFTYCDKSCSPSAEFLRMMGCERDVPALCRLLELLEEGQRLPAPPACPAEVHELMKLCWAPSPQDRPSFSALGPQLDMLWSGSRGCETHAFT

| SMILES | pIC50 (TYK2) | pIC50 (JAK2) | pIC50 (JAK3) | pIC50 (Syk) | pIC50 (JAK1) |
| --- | --- | --- | --- | --- | --- |
| COC(=O)Nc1cccc(Nc2ncc(C(N)=O)c(NCC(F)(F)F)n2)c1 [Example 4, Methyl 3-(5-carbamoyl-4-(2,2,2-trifluoroethylamino)pyrimidin-2-ylamino)phenylcarbamate] | 7.00 to 8.00 | 7.00 to 8.00 | 7.00 to 8.00 | 6.00 to 7.00 | 7.00 to 8.00 |
| COCC(=O)Nc1cccc(Nc2ncc(C(N)=O)c(N[C@@H](C)c3ccccc3)n2)c1 [Example 42, (S)-2-(3-(2-methoxyacetamido)phenylamino)-4-(1-phenylethylamino)pyrimidine-5-carboxamide] | – | 6.00 to 7.00 | 6.00 to 7.00 | < 6.00 | 6.00 to 7.00 |
| COCC(=O)Nc1cccc(Nc2ncc(C(N)=O)c(NCc3ccc(C)cc3)n2)c1 [Example 43, 2-(3-(2-methoxyacetamido)phenylamino)-4-(4-methylbenzylamino)pyrimidine-5-carboxamide] | – | 6.00 to 7.00 | 7.00 to 8.00 | < 6.00 | 6.00 to 7.00 |
| COCC(=O)Nc1cccc(Nc2ncc(C(N)=O)c(NCc3ccc(OC)cc3)n2)c1 [Example 44, 2-(3-(2-methoxyacetamido)phenylamino)-4-(4-methoxybenzylamino)pyrimidine-5-carboxamide] | – | 6.00 to 7.00 | 7.00 to 8.00 | < 6.00 | 6.00 to 7.00 |
| COCC(=O)Nc1cccc(Nc2ncc(C(N)=O)c(NCc3ccc(Cl)cc3)n2)c1 [Example 45, 4-(4-chlorobenzylamino)-2-(3-(2-methoxyacetamido)phenylamino)pyrimidine-5-carboxamide] | – | 6.00 to 7.00 | 6.00 to 7.00 | < 6.00 | < 6.00 |
| COCC(=O)Nc1cccc(Nc2ncc(C(N)=O)c(NCc3ccc(Cl)c(Cl)c3)n2)c1 [Example 46, 4-(3,4-dichlorobenzylamino)-2-(3-(2-methoxyacetamido)phenylamino)pyrimidine-5-carboxamide] | – | < 6.00 | 6.00 to 7.00 | < 6.00 | < 6.00 |
| CC(=O)Nc1cccc(Nc2ncc(C(N)=O)c(NC[C@@H](O)c3ccccc3)n2)c1 [Example 48, (S)-2-(3-acetamidophenylamino)-4-(2-hydroxy-2-phenylethylamino)pyrimidine-5-carboxamide] | – | 7.00 to 8.00 | 8.00 to 9.00 | < 6.00 | 6.00 to 7.00 |
| CC(=O)Nc1cccc(Nc2ncc(C(N)=O)c(NC[C@H](O)c3ccccc3)n2)c1 [Example 49, (R)-2-(3-acetamidophenylamino)-4-(2-hydroxy-2-phenylethylamino)pyrimidine-5-carboxamide] | – | 7.00 to 8.00 | 8.00 to 9.00 | 6.00 to 7.00 | 6.00 to 7.00 |
| CC(=O)Nc1cccc(Nc2ncc(C(N)=O)c(NCC(N)=O)n2)c1 [Example 50, 2-(3-acetamidophenylamino)-4-(2-amino-2-oxoethylamino)pyrimidine-5-carboxamide] | – | 6.00 to 7.00 | 6.00 to 7.00 | < 6.00 | 6.00 to 7.00 |
| CC(=O)Nc1cccc(Nc2ncc(C(N)=O)c(NC3CC3c3ccccc3)n2)c1 (centres unmarked) [Example 51, 2-(3-acetamidophenylamino)-4-(2-phenylcyclopropylamino)pyrimidine-5-carboxamide] | – | 7.00 to 8.00 | 7.00 to 8.00 | 6.00 to 7.00 | 6.00 to 7.00 |
| CC(=O)Nc1cccc(Nc2ncc(C(N)=O)c(N(C)Cc3ccccc3)n2)c1 [Example 54, 2-(3-acetamidophenylamino)-4-(benzyl(methyl)amino)pyrimidine-5-carboxamide] | – | 6.00 to 7.00 | 6.00 to 7.00 | < 6.00 | < 6.00 |
| COCC(=O)Nc1cccc(Nc2ncc(C(N)=O)c(NC3CCC3)n2)c1 [Example 55, 4-(cyclobutylamino)-2-(3-(2-methoxyacetamido)phenylamino)pyrimidine-5-carboxamide] | – | 7.00 to 8.00 | 8.00 to 9.00 | 6.00 to 7.00 | 7.00 to 8.00 |
| CC(=O)Nc1cccc(Nc2ncc(C(N)=O)c(NCCc3ccccc3)n2)c1 [Example 56, 2-(3-acetamidophenylamino)-4-(phenethylamino)pyrimidine-5-carboxamide] | – | 7.00 to 8.00 | 7.00 to 8.00 | 6.00 to 7.00 | 6.00 to 7.00 |
| COCC(=O)Nc1cccc(Nc2ncc(C(N)=O)c(NCc3c(F)ccc(F)c3F)n2)c1 [Example 58, 2-(3-(2-methoxyacetamido)phenylamino)-4-(2,3,6-trifluorobenzylamino)pyrimidine-5-carboxamide] | – | 8.00 to 9.00 | 8.00 to 9.00 | 6.00 to 7.00 | 7.00 to 8.00 |
| CC(=O)Nc1cccc(Nc2ncc(C(N)=O)c(NCc3c(F)ccc(F)c3F)n2)c1 [Example 59, 2-(3-acetamidophenylamino)-4-(2,3,6-trifluorobenzylamino)pyrimidine-5-carboxamide] | – | 7.00 to 8.00 | 8.00 to 9.00 | 6.00 to 7.00 | 7.00 to 8.00 |
| CC(=O)Nc1cccc(Nc2ncc(C(N)=O)c(NCCC(N)=O)n2)c1 [Example 61, 2-(3-acetamidophenylamino)-4-(3-amino-3-oxopropylamino)pyrimidine-5-carboxamide] | – | 6.00 to 7.00 | 7.00 to 8.00 | < 6.00 | 7.00 to 8.00 |
| CC(=O)Nc1cccc(Nc2ncc(C(N)=O)c(N[C@@H](CO)CC(C)C)n2)c1 [Example 62, (R)-2-(3-acetamidophenylamino)-4-(1-hydroxy-4-methylpentan-2-ylamino)pyrimidine-5-carboxamide] | – | 6.00 to 7.00 | 7.00 to 8.00 | < 6.00 | 7.00 to 8.00 |
| CC(=O)Nc1cccc(Nc2ncc(C(N)=O)c(NCCN3CCCC3)n2)c1 [Example 63, 2-(3-acetamidophenylamino)-4-(2-(pyrrolidin-1-yl)ethylamino)pyrimidine-5-carboxamide] | – | < 6.00 | 6.00 to 7.00 | < 6.00 | < 6.00 |
| CC(=O)Nc1cccc(Nc2ncc(C(N)=O)c(N[C@@H](C)c3ccccc3)n2)c1 [Example 64, (S)-2-(3-acetamidophenylamino)-4-(1-phenylethylamino)pyrimidine-5-carboxamide] | – | 6.00 to 7.00 | 7.00 to 8.00 | < 6.00 | 6.00 to 7.00 |
| CC(=O)Nc1cccc(Nc2ncc(C(N)=O)c(NCc3ccc(C)cc3)n2)c1 [Example 67, 2-(3-acetamidophenylamino)-4-(4-methylbenzylamino)pyrimidine-5-carboxamide] | – | 6.00 to 7.00 | 7.00 to 8.00 | < 6.00 | 6.00 to 7.00 |
| COc1ccc(CNc2nc(Nc3cccc(NC(C)=O)c3)ncc2C(N)=O)cc1 [Example 68, 2-(3-acetamidophenylamino)-4-(4-methoxybenzylamino)pyrimidine-5-carboxamide] | – | 6.00 to 7.00 | 7.00 to 8.00 | < 6.00 | 6.00 to 7.00 |
| CC(=O)Nc1cccc(Nc2ncc(C(N)=O)c(NCc3ccc(Cl)cc3)n2)c1 [Example 69, 2-(3-acetamidophenylamino)-4-(4-chlorobenzylamino)pyrimidine-5-carboxamide] | – | 6.00 to 7.00 | 7.00 to 8.00 | < 6.00 | 6.00 to 7.00 |
| CC(=O)Nc1cccc(Nc2ncc(C(N)=O)c(NCc3ccc(Cl)c(Cl)c3)n2)c1 [Example 70, 2-(3-acetamidophenylamino)-4-(3,4-dichlorobenzylamino)pyrimidine-5-carboxamide] | – | 6.00 to 7.00 | 6.00 to 7.00 | < 6.00 | < 6.00 |
| CC(=O)Nc1cccc(Nc2ncc(C(N)=O)c(N[C@H](C)c3ccccc3)n2)c1 [Example 71, (R)-2-(3-acetamidophenylamino)-4-(1-phenylethylamino)pyrimidine-5-carboxamide] | – | 7.00 to 8.00 | 8.00 to 9.00 | < 6.00 | 6.00 to 7.00 |
| CNC(=O)CNc1nc(Nc2cccc(NC(C)=O)c2)ncc1C(N)=O [Example 72, 2-(3-acetamidophenylamino)-4-(2-(methylamino)-2-oxoethylamino)pyrimidine-5-carboxamide] | – | 6.00 to 7.00 | 7.00 to 8.00 | < 6.00 | 6.00 to 7.00 |
| CC(=O)Nc1cccc(Nc2ncc(C(N)=O)c(NCC#N)n2)c1 [Example 74, 2-(3-acetamidophenylamino)-4-(cyanomethylamino)pyrimidine-5-carboxamide] | – | 7.00 to 8.00 | 7.00 to 8.00 | 6.00 to 7.00 | 7.00 to 8.00 |
| NC(=O)c1cnc(Nc2ccc(F)c(NC(=O)N3CCC3)c2)cc1NCc1cccc(F)c1 [Example 305, 6-(3-(azetidine-1-carboxamido)-4-fluorophenylamino)-4-(3-fluorobenzylamino)nicotinamide] | – | 6.00 to 7.00 | 8.00 to 9.00 | < 6.00 | 6.00 to 7.00 |
| CN(C)[C@@H]1CCN(C(=O)Nc2cccc(Nc3cc(NCc4cccc(F)c4)c(C(N)=O)cn3)c2)C1 [Example 306, (R)-6-(3-(3-(dimethylamino)pyrrolidine-1-carboxamido)phenylamino)-4-(3-fluorobenzylamino)nicotinamide] | – | 7.00 to 8.00 | > 9.00 | < 6.00 | 6.00 to 7.00 |
